From publication PMC1458349, “Evaluation of high-dose daptomycin for therapy of experimental Staphylococcus aureus foreign body infection” (BMC Infectious Diseases, 2006)
In brackets after ≈: the same amount, converted by molar mass. Several values for one entry are separate records, joined by “and”; a condition that tells them apart may be missing. Equal entries are not always repeated. Where two headings read alike, the source gives them in different places.

Columns and labels:
[1] = tested on: MSSA strain I20; test: Killing kinetic (time-kill) studies; type: cell-based, Staphylococcus aureus; conditions: 8 mg/L in CAMHB; 10^6 CFU exponential-phase; 37°C; one representative of three experiments
Procedure: 0.1-mL portions containing 10^6 CFU of strain I20 (obtained from exponential-phase cultures) were added to sterile plastic tubes containing 1 mL of either CSMHB containing 8 mg/L of daptomycin, or CAMHB containing 8 mg/L of oxacillin or vancomycin, in a shaking waterbath at 37°C. The number of viable organisms was determined by subculturing 50 μL of 10-fold diluted portions on MHA after 0, 2, 4, 6, and 24 h of incubation. Colonies were enumerated with a laser colony counter (Spiral System) after 48 h of incubation at 37°C. The detection limit was 2 log10 CFU/mL. […] Each killing kinetic experiment was repeated three times and results from one representative experiment are presented.

[2] = tested on: methicillin-susceptible S. aureus (MSSA) strain I20; test: MIC, standard tube macrodilution (CLSI); type: cell-based; conditions: Staphylococcus aureus
Procedure: The methicillin-susceptible S. aureus (MSSA) strain I20 is a previously described clinical isolate from catheter-related sepsis, which is highly virulent in the rat model of chronic S. aureus tissue cage infection. Strain I20 is uniformly susceptible to all antibiotics except penicillin.
The MICs of oxacillin and vancomycin for strain I20 were determined in cation-adjusted Mueller-Hinton broth (CAMHB) containing 20-25 mg/L Ca^2+ and 10-12.5 mg/L Mg^2+ by the standard tube macrodilution method with an average inoculum of 10^6 CFU/mL as described by the Clinical Laboratory Standards Institute (CLSI). For daptomycin MIC, CAMHB was supplemented with additional calcium to a physiological concentration of 50 mg/L Ca^2+ (CSMHB).
Each MIC and MBC determination was performed three times and the modal values are presented. In additional control experiments, MICs and MBCs were performed in CAMHB supplemented with 50% TCF.

[3] = rats, cited from earlier work
[4] = tested on: methicillin-susceptible S. aureus (MSSA) strain I20; test: microbe, parasite or virus in culture; type: cell-based, Staphylococcus aureus
Procedure: To screen for the possible carryover effects of each antibiotic during the MBC determinations, 0.1-mL portions were taken from all tubes with no visible growth. These were subcultured, either undiluted or diluted 10-fold in saline, on Mueller-Hinton agar (MHA) for 36 h at 37°C. The MBC was defined as the lowest concentration that killed 99.9% of the original inoculum. Each MIC and MBC determination was performed three times and the modal values are presented. In additional control experiments, MICs and MBCs were performed in CAMHB supplemented with 50% TCF.

[5] = tested on: MSSA strain I20; type: in vivo, Staphylococcus aureus; conditions: Wistar rats, i.p. twice daily for 7 days: daptomycin 30 mg/kg, oxacillin 200 mg/kg, vancomycin 50 mg/kg, mean ± SEM, n = 18-19 cages; for average counts in tissue cages at the end of the 7-day therapy: TCF cultured 12 h after last dose; for reduction in bacterial counts in TCF (delta log10 CFU/mL, day 1 to day 8): P < 0.001 vs untreated
Procedure: All animal studies of the daptomycin no 1-study were performed in 1991. These animal studies followed ethical guidelines of that time period and received legal approval from the Veterinary Office of the State of Geneva. Subcutaneous surgical implantation of four tissue cages per animal was performed as described by using Wistar rats that were anaesthetised with an intraperitoneal (i.p.) injection of a mixture of ketamine (90 mg/kg) and xylazine (5 mg/kg). At 3 weeks post-implantation, TCF was aspirated and checked for sterility. To establish a chronic S. aureus infection, tissue cages were inoculated with 0.1 mL of saline containing 0.2 × 10^6 to 2 × 10^6 CFU of a washed overnight culture of strain I20 in CAMHB. Three weeks later, all tissue cages containing more than 10^5 CFU/mL of TCF were included in the therapeutic protocols.
Rats infected with strain I20 were randomised to receive (by the i.p. route for 7 days) twice-daily regimens of either daptomycin (30 mg/kg), oxacillin (200 mg/kg), or vancomycin (50 mg/kg), or were left untreated. At 12 h after the last injection of antibiotic, quantitative cultures of 10-fold serially diluted TCF were performed on MHA. To optimise the yield of viable bacteria, TCF were briefly sonicated (60 W, 1 min) to disrupt the biofilm and phagocytic cells before the serial dilutions and plating. Plates were incubated for 24-48 h at 37°C. The detection limit was one colony equivalent to 2 log10 CFU/mL of TCF. The differences in CFU counts between day 1 and day 8 were determined and expressed as delta log10CFU/mL. For each treatment group, results were expressed as means ± standard errors of the means (SEM). Comparison of bacterial counts in the different groups was performed by ANOVA and Newman-Keuls multiple comparisons procedures using Microsoft Excel® 2000 software. Data were considered significant when P was < 0.05 by using two-tailed significance levels.

[6] = rats, 30 mg/kg once daily, cited from earlier work
[7] = Pharmacokinetic levels in rat plasma; conditions: 30 mg/kg i.p. twice daily, day 4
Procedure: (§1) For each time point, the mean (± SEM) daptomycin levels in plasma from four animals was determined.

[8] = in vivo; conditions: Wistar, rat, tissue cage fluid (TCF), ip, 30 mg/kg
Procedure: as §1

[9] = Pharmacokinetic levels in rat tissue cage fluid (TCF)
Procedure: as §1

[10] = in vivo; conditions: rat, plasma, ip, 30 mg/kg
Procedure: as §1

[11] = Screening of side effects: serum liver, kidney and muscle markers; type: in vivo, rat
Procedure: To check for potential side effects of the twice-daily 30 mg/kg daptomycin regimen, serum samples of the daptomycin-treated and control rats were collected at day 8 for determination of liver, kidney, and muscle enzyme markers, namely aspartate aminotransferase (ASAT) and alanine aminotransferase (ALAT) activities, serum creatinine, and creatine kinase, respectively, using standard analytical methods.

[12] = rat, in vivo, cited from earlier work
[13] = twice-daily oxacillin 200 mg/kg or vancomycin 50 mg/kg
[14] = Staphylococcus aureus, MSSA, CAMHB, lowest concentration killing 99.9% of inoculum, subculture on MHA 36 h 37°C, modal value of 3, read-out: MBC

In the case of `CN[C@H](CC(C)C)C(=O)N[C@H]1C(=O)N[C@@H](CC(N)=O)C(=O)N[C@H]2C(=O)N[C@H]3C(=O)N[C@H](C(=O)N[C@H](C(=O)O)c4cc(O)cc(O)c4-c4cc3ccc4O)[C@H](O)c3ccc(c(Cl)c3)Oc3cc2cc(c3O[C@@H]2O[C@H](CO)[C@@H](O)[C@H](O)[C@H]2O[C@H]2C[C@](C)(N)[C@H](O)[C@H](C)O2)Oc2ccc(cc2Cl)[C@H]1O` [vancomycin], the “time after which reduction in viable counts exceeded 3 log10 CFU/mL” value [1] is listed as 4 h, the MIC [2] is listed as 1 µg/mL (≈ 0.69 µM) and the “peak TCF level” value [3, 13] is listed as 12 mg/L. The “trough TCF level” value [3, 13] was 2 mg/L, the MBC [4, 14] was 2 µg/mL (≈ 1.38 µM) and the “average counts in tissue cages at the end of the 7-day therapy” value [5] was 5.49 ± 0.21 log10 CFU/mL. The “reduction in bacterial counts in TCF (delta log10 CFU/mL, day 1 to day 8)” value [5] was 0.96 log10 CFU/mL and 0.96 ± 0.24 log10 CFU/mL.

In the case of `CCCCCCCCCC(=O)N[C@@H](Cc1c[nH]c2ccccc12)C(=O)N[C@H](CC(N)=O)C(=O)N[C@@H](CC(=O)O)C(=O)N[C@@H]1C(=O)NCC(=O)N[C@@H](CCCN)C(=O)N[C@@H](CC(=O)O)C(=O)N[C@H](C)C(=O)N[C@@H](CC(=O)O)C(=O)NCC(=O)N[C@H](CO)C(=O)N[C@@H]([C@H](C)CC(=O)O)C(=O)N[C@@H](CC(=O)c2ccccc2N)C(=O)O[C@@H]1C` [daptomycin], the “plasma AUC0-24h” value [6] is given as 558 µg·h/mL, the peak plasma level ([6]; day 4, HPLC) is given as 141 mg/L and the trough plasma level ([6]; day 4, HPLC) is given as 0 mg/L. For the same molecule, the “plasma level at 12 h” value ([6]; day 4) was 1000 ng/mL, the “plasma AUC0-24h” value ([7]; rats, AUC0-12 by linear trapezoidal rule multiplied by two) was 1667 µg·h/mL and the “mean peak plasma level” value ([7]; uninfected rats, at 1 h, microbiological assay, mean of four animals) was 173 mg/L. The level at 4 day [8] was 21000 ng/mL, the “TCF AUC0-24h” value ([9]; rats, 30 mg/kg i.p. twice daily, day 4, AUC0-12 by linear trapezoidal rule multiplied by two) was 1073 µg·h/mL and the “TCF AUC0-24h as percentage of plasma AUC0-24h” value ([9]; rats, 30 mg/kg twice-daily regimen (printed as daptomycin no 2-study)) was 64%. The “mean peak level in TCF” value ([9]; uninfected rats, 30 mg/kg i.p. twice daily, day 4, microbiological assay, mean of six animals) was 66 mg/L, the “TCF AUC0-24h as percentage of plasma AUC0-24h” value ([3]; 30 mg/kg daily regimen (printed as daptomycin no 1-study)) was 35% and the “TCF AUC0-24h” value ([3]; 30 mg/kg once daily) was 196 µg·h/mL. The “TCF level at 12 h (intermediate value)” value ([3]; 30 mg/kg once daily) was 10.0 mg/L, the “mean peak level in TCF” value ([3]; 30 mg/kg once daily) was 11.8 mg/L and the “mean trough level in TCF” value ([3]; 30 mg/kg once daily) was 3.4 mg/L. For the same molecule, the MBC ([4]; methicillin-susceptible strain I20, 36 h) was 1 µg/mL (≈ 0.617 µM), the level at 12 h [10] was 9100 ng/mL and the “exterior signs of toxicity” value ([11]; rats receiving twice-daily doses (30 mg/kg)) was “No exterior sign of toxicity”. The “liver toxicity (overall assessment)” value ([11]; rats treated with high-dose daptomycin (30 mg/kg twice daily, 7 days)) was “only mild liver toxicity”, the “ALAT (alanine aminotransferase) activity in serum” value ([11]; rats, 30 mg/kg i.p. twice daily for 7 days, serum at day 8, n = 5, control 41 ± 11) was 46 ± 9 IU/L and the serum creatinine ([11]; rats, 30 mg/kg i.p. twice daily for 7 days, serum at day 8, n = 5, control 50 ± 5) was 53 ± 5 μM/L. For the same molecule, the “ASAT (aspartate aminotransferase) activity in serum” value ([11]; rats, 30 mg/kg i.p. twice daily for 7 days, serum at day 8, n = 5, control 146 ± 36) was 216 ± 24 IU/L, the “creatine kinase in serum” value ([11]; rats, 30 mg/kg i.p. twice daily for 7 days, serum at day 8, n = 5, control 1349 ± 820) was 1393 ± 886 IU/L and the “plasma AUC0-24h” value ([12]; 25 mg/kg) was 278 µg·h/mL. For the same molecule, the “plasma AUC0-24h” value ([12]; 40 mg/kg) was 605 µg·h/mL.

In the case of `Cc1onc(-c2ccccc2)c1C(=O)N[C@@H]1C(=O)N2[C@@H]1SC(C)(C)[C@@H]2C(=O)O` [oxacillin], the “time after which reduction in viable counts exceeded 3 log10 CFU/mL” value [1] is given as 4 h, the MIC ([2]; CAMHB (20-25 mg/L Ca2+, 10-12.5 mg/L Mg2+), tube macrodilution, inoculum 10^6 CFU/mL, modal value of 3 determinations, read-out: MIC) is given as 0.5 µg/mL (≈ 1.25 µM) and the “trough TCF level” value [3, 13] is given as 5.7 mg/L. For the same molecule, the MBC [4, 14] was 1 µg/mL (≈ 2.49 µM), the “average counts in tissue cages at the end of the 7-day therapy” value [5] was 5.90 ± 0.25 log10 CFU/mL and the “reduction in bacterial counts in TCF (delta log10 CFU/mL, day 1 to day 8)” value [5] was 0.92 log10 CFU/mL and 0.92 ± 0.21 log10 CFU/mL.
